Reference: US8796256B2 (Janssen Pharmaceutica NV, priority 2010, dated 2014)

Each compound was assayed against T1, ERR1 (also known as ERR-α or ERR-1) (Homo sapiens, UniProt P11474) (assay: TR-FRET assay (disruption of co-activator peptide binding to ERR1 LBD)). Conditions: 6 nM 6His-ERR1LBD, 6 nM GST-SRC-2 peptide; average of 3 independent experiments.
T1 sequence (P11474 193-421 limits assumed): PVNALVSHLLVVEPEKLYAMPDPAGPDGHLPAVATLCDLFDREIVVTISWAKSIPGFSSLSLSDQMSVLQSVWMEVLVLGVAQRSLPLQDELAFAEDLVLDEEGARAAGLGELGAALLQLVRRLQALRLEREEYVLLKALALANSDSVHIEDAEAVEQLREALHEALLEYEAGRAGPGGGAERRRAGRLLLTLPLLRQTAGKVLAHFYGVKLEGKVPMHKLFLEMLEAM
Type: biochemical
Outline: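 Homogeneous TR-FRET measuring displacement of GST-hSRC2 co-activator peptide (6 nM) from His-tagged ERR1 LBD (6 nM), detected with α-GST Eu cryptate (30 nM) and α-His-XL665 (7.5 nM). Buffer 25 mM Tris pH 8, 2.5 mM Hepes, 20 mM KCl, 1 mM DTT, 0.05 mg/mL delipidated BSA; equilibration 4-18 h at 25° C. Hyperbolic dose-response fit, mean of 3 experiments.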

EC50 [µM] | Structure (SMILES)
0.29 | O=C(O)[C@H]1CCCN1CCN1C(=O)S/C(=C\c2ccc3c(ccn3Cc3ccc(C(F)(F)F)cc3C(F)(F)F)c2)C1=O [Compound 248, 1-{2-[(5Z)-5-({1-[2,4-Bis(trifluoromethyl)benzyl]-1H-indol-5-yl}methylidene)-2,4-dioxo-1,3-thiazolidin-3-yl]ethyl}-D-proline]
0.11 | O=C1S/C(=C\c2ccc3c(ccn3Cc3ccc(Cl)cc3C(F)(F)F)c2)C(=O)N1C[C@H]1COCCN1 [Compound 256, (5Z)-5-({1-[4-Chloro-2-(trifluoromethyl)benzyl]-1H-indol-5-yl}methylidene)-3-[(3S)-morpholin-3-ylmethyl]-1,3-thiazolidine-2,4-dione]
0.029 | CN1CC[C@@H](N2C(=O)S/C(=C\c3ccc4c(cnn4Cc4ccc(C(F)(F)F)cc4C(F)(F)F)c3)C2=O)[C@H](O)C1 (relative stereo) [Compound 276, (5Z)-5-({1-[2,4-Bis(trifluoromethyl)benzyl]-1H-indazol-5-yl}methylidene)-3-[trans-3-hydroxy-l-methylpiperidin-4-yl]-1,3-thiazolidine-2,4-dione]
0.039 | CNN1C(=O)S/C(=C\c2ccc3c(cnn3Cc3ccc(C(F)(F)F)cc3C(F)(F)F)c2)C1=O [Compound 357, (5Z)-5-({1-[2,4-Bis(trifluoromethyl)benzyl]-1H-indazol-5-yl}methylidene)-3-(methylamino)-1,3-thiazolidine-2,4-dione]
0.059 | CS(=O)(=O)NN1C(=O)S/C(=C\c2ccc3c(cnn3Cc3ccc(F)cc3C(F)(F)F)c2)C1=O [Compound 363, N-[(5Z)-5-({1-[4-Fluoro-2-(trifluoromethyl)benzyl]-1H-indazol-5-yl}methylidene)-2,4-dioxo-1,3-thiazolidin-3-yl]methanesulfonamide]
0.079 | O=C1S/C(=C\c2ccc3c(cnn3Cc3ccc(Cl)cc3C(F)(F)F)c2)C(=O)N1CCNS(=O)(=O)N1CCCC1 [Compound 399, N-{2-[(5Z)-5-({1-[4-Chloro-2-(trifluoromethyl)benzyl]-1H-indazol-5-yl}methylidene)-2,4-dioxo-1,3-thiazolidin-3-yl]ethyl}pyrrolidine-1-sulfonamide]
0.238 | CC(C)N1CC[C@@H](N2C(=O)S/C(=C\c3ccc4c(cnn4Cc4ccc(C(F)(F)F)cc4C(F)(F)F)c3)C2=O)[C@H](F)C1 (relative stereo) [Compound 331, (5Z)-5-({1-[2,4-Bis(trifluoromethyl)benzyl]-1H-indazol-5-yl}methylidene)-3-[trans-3-fluoro-1-(1-methylethyl)piperidin-4-yl]-1,3-thiazolidine-2,4-dione]
0.04 | CN1CCC(=O)C(N2C(=O)S/C(=C\c3ccc4c(cnn4Cc4ccc(Cl)cc4C(F)(F)F)c3)C2=O)C1 (stereo not shown) [Compound 344, (5Z)-5-({1-[4-Chloro-2-(trifluoromethyl)benzyl]-1H-indazol-5-yl}methylidene)-3-(1-methyl-4-oxopiperidin-3-yl)-1,3-thiazolidine-2,4-dione]
0.099 | COC(=O)C1(N2C(=O)S/C(=C\c3ccc4c(cnn4Cc4ccc(Cl)cc4C(F)(F)F)c3)C2=O)CCC1 [Compound 234, Methyl 1-[(5Z)-5-({1-[4-chloro-2-(trifluoromethyl)benzyl]-1H-indazol-5-yl}methylidene)-2,4-dioxo-1,3-thiazolidin-3-yl]cyclobutanecarboxylate]
0.083 | Cc1nn(C)c(Cl)c1S(=O)(=O)NCCN1C(=O)S/C(=C\c2ccc3c(cnn3Cc3ccc(Cl)cc3C(F)(F)F)c2)C1=O [Compound 418, 5-Chloro-N-{2-[(5Z)-5-({1-[4-chloro-2-(trifluoromethyl)benzyl]-1H-indazol-5-yl}methylidene)-2,4-dioxo-1,3-thiazolidin-3-yl]ethyl}-1,3-dimethyl-1H-pyrazole-4-sulfonamide]
0.153 | O=C(O)CN1C(=O)S/C(=C\c2ccc3c(c2)c(-c2ccc(F)cc2)nn3Cc2ccc(Cl)cc2C(F)(F)F)C1=O [Compound 408, [(5Z)-5-({1-[4-Chloro-2-(trifluoromethyl)benzyl]-3-(4-fluorophenyl)-1H-indazol-5-yl}methylidene)-2,4-dioxo-1,3-thiazolidin-3-yl]acetic acid]
0.018 | O=C1S/C(=C\c2ccc3c(cnn3Cc3ccc(Cl)cc3C(F)(F)F)c2)C(=O)N1C1CCNCC1(F)F (stereo not shown) [Compound 345, (5Z)-5-({1-[4-Chloro-2-(trifluoromethyl)benzyl]-1H-indazol-5-yl}methylidene)-3-(3,3-difluoropiperidin-4-yl)-1,3-thiazolidine-2,4-dione]
0.022 | CNN1C(=O)S/C(=C\c2ccc3c(cnn3Cc3ccc(Cl)cc3C(F)(F)F)c2)C1=O [Compound 358, (5Z)-5-({1-[4-Chloro-2-(trifluoromethyl)benzyl]-1H-indazol-5-yl}methylidene)-3-(methylamino)-1,3-thiazolidine-2,4-dione]
0.215 | O=C1S/C(=C\c2ccc3c(cnn3Cc3ccc(Cl)cc3C(F)(F)F)c2)C(=O)N1CCNS(=O)(=O)c1ccc(C(F)(F)F)cc1 [Compound 392, N-{2-[(5Z)-5-({1-[4-Chloro-2-(trifluoromethyl)benzyl]-1H-indazol-5-yl}methylidene)-2,4-dioxo-1,3-thiazolidin-3-yl]ethyl}-4-(trifluoromethyl) benzenesulfonamide]

More lines, now with the values behind:

Structure (SMILES) | EC50 [µM]
O=C1S/C(=C\c2ccc3c(cnn3Cc3ccc(Cl)cc3C(F)(F)F)c2)C(=O)N1C[C@@H]1CCCN1 [Compound 145, (5Z)-5-({1-[4-Chloro-2-(trifluoromethyl)benzyl]-1H-indazol-5-yl}methylidene)-3-[(2S)-pyrrolidin-2-ylmethyl]-1,3-thiazolidine-2,4-dione] | 0.027
O=C(O)[C@@H](CO)N1C(=O)S/C(=C\c2ccc3c(cnn3Cc3ccc(Cl)cc3C(F)(F)F)c2)C1=O [Compound 222, (2R)-2-[(5Z)-5-({1-[4-Chloro-2-(trifluoromethyl)benzyl]-1H-indazol-5-yl}methylidene)-2,4-dioxo-1,3-thiazolidin-3-yl]-3-hydroxypropanoic acid] | 0.058
N[C@@H]1CCCC[C@H]1N1C(=O)S/C(=C\c2ccc3c(cnn3Cc3ccc(Cl)cc3C(F)(F)F)c2)C1=O [Compound 174, (5Z)-3-[(1R,2R)-2-Aminocyclohexyl]-5-({1-[4-chloro-2-(trifluoromethyl)benzyl]-1H-indazol-5-yl}methylidine)-1,3-thiazolidine-2,4-dione] | 0.15
O=C1S/C(=C\c2ccc3c(cnn3[C@@H]3CCc4cc(Cl)ccc43)c2)C(=O)N1CCN1CCCC1 [Compound 178, (5Z)-5-({1-[(1R)-5-Chloro-2,3-dihydro-1H-inden-1-yl]-1H-indazol-5-yl}methylidene)-3-(2-pyrrolidin-1-ylethyl)-1,3-thiazolidine-2,4-dione] | 9.7
CC1(C)OCC(CN2C(=O)S/C(=C\c3ccc4c(cnn4Cc4ccc(Cl)cc4C(F)(F)F)c3)C2=O)O1 (stereo not shown) [Compound 42, (5Z)-5-({1-[4-Chloro-2-(trifluoromethyl)benzyl]-1H-indazol-5-yl}methylidene)-3-[(2,2-dimethyl-1,3-dioxolan-4-yl)methyl]-1,3-thiazolidine-2,4-dione] | 0.046
NC[C@H]1CC[C@H](CN2C(=O)S/C(=C\c3ccc4c(cnn4Cc4ccc(Cl)cc4C(F)(F)F)c3)C2=O)CC1 [Compound 106, (5Z)-3-{[trans-4-(Aminomethyl)cyclohexyl]methyl}-5-({1-[4-chloro-2-(trifluoromethyl)benzyl]-1H-indazol-5-yl}methylidene)-1,3-thiazolidine-2,4-dione] | 0.35
COCCN1C[C@H](O)C[C@H]1CN1C(=O)S/C(=C\c2ccc3c(cnn3Cc3ccc(Cl)cc3C(F)(F)F)c2)C1=O [Compound 188, (5Z)-5-({1-[4-Chloro-2-(trifluoromethyl)benzyl]-1H-indazol-5-yl}methylidene)-3-{[(2S,4R)-4-hydroxy-1-(2-methoxyethyl)pyrrolidin-2-yl]methyl}-1,3-thiazolidine-2,4-dione] | 0.06
O=C1S/C(=C\c2ccc3c(cnn3Cc3ccc(Cl)cc3C(F)(F)F)c2)C(=O)N1CCc1ccncc1 [Compound 108, (5Z)-5-({1-[4-Chloro-2-(trifluoromethyl)benzyl]-1H-indazol-5-yl}methylidene)-3-(2-pyridin-4-ylethyl)-1,3-thiazolidine-2,4-dione] | 0.102
CC(=O)NS(=O)(=O)CN1C(=O)S/C(=C\c2ccc3c(cnn3Cc3ccc(F)cc3C(F)(F)F)c2)C1=O [Compound 64, N-({[(5Z)-5-({1-[4-Fluoro-2-(trifluoromethyl)benzyl]-1H-indazol-5-yl}methylidene)-2,4-dioxo-1,3-thiazolidin-3-yl)methyl}sulfonyl)acetamide] | 0.485
O=C1S/C(=C\c2ccc3c(cnn3Cc3ccc(Cl)cc3C(F)(F)F)c2)C(=O)N1C1CCCNCC1 (stereo not shown) [Compound 77, (5Z)-3-Azepan-4-yl-5-({1-[4-chloro-2-(trifluoromethyl)benzyl]-1H-indazol-5-yl}methylidene)-1,3-thiazolidine-2,4-dione] | 0.028
O=C1S/C(=C\c2ccc3c(cnn3Cc3ccc(Cl)cc3C(F)(F)F)c2)C(=O)N1C[C@@H]1CN2CCC[C@H]2CO1 [Compound 203, (5Z)-5-({1-[4-Chloro-2-(trifluoromethyl)benzyl]-1H-indazol-5-yl}methylidene)-3-[(3S,8aS)-hexahydro-1H-pyrrolo[2,1-c] [1,4]oxazin-3-ylmethyl]-1,3-thiazolidine-2,4-dione] | 0.053
